Reference: patent publication US11497726B2, “Topical therapy for the treatment of cervical intraepithelial neoplasia (CIN) and cervical cancer using nanoparticles of taxanes” (DFB SORIA, LLC, priority 2018, dated 2022)
Where two headings read alike, the source gives them in different places.

How the values were obtained:
[1] = Particle size of paclitaxel nanoparticle lots (ACCUSIZER 780); assay type: physicochemical
Method: Instrument parameters: Max. Concentration: 9000 particles/mL, No. containers: 1, Sensor Range: Summation, Lower Detection Limit: 0.5 μm, Flow Rate: 30 mL/min, No. Analysis pulls: 4, Time between pulls: 1 sec, Pull volume: 10 mL, Tare Volume: 1 mL, Prime volume: 1 mL, Include First Pull: Not Selected.
Vortexed for 5-10 minutes and sonicated in a water batch for 1 minute.
Method: Filled a plastic bottle with filtered (0.22 μm) 0.1% w/w SDS solution and analyzed the Background.

[2] = Crystal growth of paclitaxel nanoparticles, visual observation by light microscopy; assay type: physicochemical
[3] = Specific surface area (SSA), BET isotherm; assay type: physicochemical
Method: (§1) As used herein, the “specific surface area (SSA)” is the total surface area of the taxane nanoparticle per unit of taxane mass as measured by the Brunauer-Emmett-Teller (“BET”) isotherm by the following method: a known mass between 200 and 300 mg of the analyte is added to a 30 mL sample tube. […] The automated test is then carried out using the BETWIN® software package and the surface area of each sample is subsequently calculated. The bulk density measurement can be conducted by pouring the taxane nanoparticles into a graduated cylinder without tapping at room temperature, measuring the mass and volume, and calculating the bulk density.

[4] = test system: Gottingen minipigs; assay: Dermal toxicity study, 28 days, GLP; assay type: in vivo; settings: topical, daily for 28 days
Method: The GLP-compliant study was conducted in Gottingen minipigs to characterize the toxicity of the formulations applied topically to 10% body surface area daily for 28 days. […] Reversibility of findings was also evaluated following a 2-week recovery period. Parameters evaluated included clinical observations, mortality and moribundity checks, dermal scoring, body weight, food consumption, eye examinations, test site photographs, electrocardiology, clinical pathology, bioanalysis and toxicokinetic evaluation, organ weights, macroscopic pathology and histopathology. There were no formulation-related effects on survival, clinical signs, dermal irritation, body weights, body weight gains, food consumption, ophthalmic findings, or cardiology parameters.

[5] = Bulk density (not tapped); assay type: physicochemical
Method: as §1

[6] = methanol/water 15/85 (v/v), 37° C., pH 7, 75 rpm, cited from earlier work
[7] = test system: rabbit skin; settings: Draize rabbit skin test model; cited from earlier work
[8] = test system: high-grade CIN; settings: cited from earlier work
[9] = Solubility of paclitaxel in various solvents (HPLC); assay type: physicochemical
Method: Step “d” was continued for each vial for a total of 48 hours.

[10] = summary statement on the cited study; cited from earlier work
[11] = lot used in formulas listed in Table 3
[12] = lot used in formulas listed in Tables 16-19

Compound: CC(=O)O[C@H]1C(=O)[C@@]2(C)[C@H]([C@H](OC(=O)c3ccccc3)[C@]3(O)C[C@H](OC(=O)[C@H](O)[C@@H](NC(=O)c4ccccc4)c4ccccc4)C(C)=C1C3(C)C)[C@]1(OC(C)=O)CO[C@@H]1C[C@@H]2O [Paclitaxel nanoparticles, paclitaxel]
- Particle size, Mean (number-weighted differential distribution) [1, 11]: 0.861 μm
- Particle size, Median (number-weighted differential distribution) [1, 11]: 0.710 μm
- Particle size, Mode (number-weighted differential distribution) [1, 11]: 0.572 μm
- Particle size, Mean (number-weighted differential distribution) [1, 12]: 0.83 μm
- Needle shaped crystals observed? (visual observation by light microscopy) ([2]; in Aluminum sulfate 0.1-0.2% in water, 7 days, RT): Yes, >5 μm, @
- Needle shaped crystals observed? (visual observation by light microscopy) ([2]; in Ammonium lauryl sulfate 2% in water, 3 days, RT): Yes, >5 μm @
- Needle shaped crystals observed? (visual observation by light microscopy) ([2]; in Benzalkonium chloride (50%) 2% in water, 7 days & 21 days, RT): No, <5 μm @
- Needle shaped crystals observed? (visual observation by light microscopy) ([2]; in CARBOPOL ULTREZ 10 (with Ammonium hydroxide as neutralizer) 0.5% in water, 8 days & 21 days, RT): No, <5 μm, @
- Needle shaped crystals observed? (visual observation by light microscopy) ([2]; in Castor Oil 100%, 24 hrs & 9 days, RT): No, <5 μm @
- Needle shaped crystals observed? (visual observation by light microscopy) ([2]; in Dimethicone, 1000 cSt 100%, 24 hrs & 6 days, RT): No, <5 μm @
- Needle shaped crystals observed? (visual observation by light microscopy) ([2]; in FOMBLIN HC04 100%, 4, 7 & 13 days, RT): No, <5 μm @
- Needle shaped crystals observed? (visual observation by light microscopy) ([2]; in Hydroxyethyl cellulose 1% in water, 7 days, RT): Yes, >5 μm, @
- Needle shaped crystals observed? (visual observation by light microscopy) ([2]; in Hydroxypropyl methylcellulose 1% in water, 3 days, RT): Yes, >5 μm @
- Needle shaped crystals observed? (visual observation by light microscopy) ([2]; in Lecithin 1% in water, 24 hrs, RT): Yes, >10 μm, @
- Needle shaped crystals observed? (visual observation by light microscopy) ([2]; in Light Mineral Oil NF 100%, 3 days, RT & 40 C.): No, <5 μm @
- Needle shaped crystals observed? (visual observation by light microscopy) ([2]; in Magnesium nitrate 5% in water, 3 days, RT): Yes, >5 μm @
- Needle shaped crystals observed? (visual observation by light microscopy) ([2]; in Mannitol 5% in water, 7 days, RT): Yes, >5 μm, @
- Needle shaped crystals observed? (visual observation by light microscopy) ([2]; in Mineral Oil USP (heavy) 100%, 3 days, RT & 40 C.): No, <5 μm @
- Needle shaped crystals observed? (visual observation by light microscopy) ([2]; in PEG 400 10% in water, 22 days, RT & 60 C.): Yes, >5 μm @
- Needle shaped crystals observed? (visual observation by light microscopy) ([2]; in Poloxamer 188 2% in water, 7 days, RT): Yes, >5 μm @
- Needle shaped crystals observed? (visual observation by light microscopy) ([2]; in Poloxamer 407 2% in water, 5 & 7 days, RT): No, <5 μm @
- Needle shaped crystals observed? (visual observation by light microscopy) ([2]; in Polyoxyl 40 Hydrogenated Castor Oil (KOLLIPHOR RH40) 1% in water, 6 days, RT): Yes, <5 μm @
- Needle shaped crystals observed? (visual observation by light microscopy) ([2]; in Polysorbate 80 0.5% in Saline, 7 days, RT & 60 C.): Yes, >5 μm @
- Needle shaped crystals observed? (visual observation by light microscopy) ([2]; in Polysorbate 80 0.5% in water, 22 days, RT & 60 C.): Yes, <5 μm @
- Needle shaped crystals observed? (visual observation by light microscopy) ([2]; in Povidone 1% in water, 7 days & 21 days, RT): Yes, <5 μm @
- Needle shaped crystals observed? (visual observation by light microscopy) ([2]; in Proline 3% in water, 7 days, RT): Yes, >5 μm, @
- Needle shaped crystals observed? (visual observation by light microscopy) ([2]; in Purified Water 100%, 5 days, RT & 60 C.): Yes, >5 μm, @
- Needle shaped crystals observed? (visual observation by light microscopy) ([2]; in ST-Cyclomethicone 5 NF 100%, 24 hrs & 13 days, RT): No, <5 μm @
- Needle shaped crystals observed? (visual observation by light microscopy) ([2]; in Saline 0.9% NaCl in water, 7 days, RT & 60 C.): Yes, >10 μm, @
- Needle shaped crystals observed? (visual observation by light microscopy) ([2]; in Sodium lauryl sulfate 2% in water, 7 days, RT): Yes, >5 μm, @
- Needle shaped crystals observed? (visual observation by light microscopy) ([2]; in Sodium phosphate monobasic 0.75% in water, 7 days, RT): Yes, >5 μm, @
- Needle shaped crystals observed? (visual observation by light microscopy) ([2]; in Sorbitol 5% in water, 7 days, RT): Yes, >5 μm, @
- Needle shaped crystals observed? (visual observation by light microscopy) ([2]; in Vitamin E TPGS 0.5% in water, 6 days, RT): Yes, <5 μm @
- Needle shaped crystals observed? (visual observation by light microscopy) ([2]; in Zinc acetate […] in water, 7 days, RT): Yes, >5 μm, @
- crystal growth ([2]; in any of the hydrophobic carriers of Table 2): did not grow
- crystal growth ([2]; in aqueous solutions of benzalkonium chloride, CARBOPOL ULTREZ 10, or poloxamer 407): did not grow
- SSA [3, 11]: 41.24 m^2/g
- SSA [3, 12]: 26.72 m^2/g
- effect of the presence of the nanoparticles in the formulations on dermal irritation [4]: negligible effect
- bulk density (not-tapped) [5, 11]: 0.05 g/mL
- bulk density (not-tapped) [5, 12]: 0.09 g/mL

Compound: CC(=O)O[C@@]12CO[C@@H]1C[C@H](O)[C@@]1(C)C(=O)[C@H](O)C3=C(C)[C@@H](OC(=O)[C@H](O)[C@@H](NC(=O)OC(C)(C)C)c4ccccc4)C[C@@](O)([C@@H](OC(=O)c4ccccc4)[C@H]21)C3(C)C [docetaxel nanoparticles, docetaxel]
- dissolution rate, % dissolved in 30 minutes ([6]; nanoparticles made by milling): 9%
- dissolution rate, % dissolved in 30 minutes ([6]; nanoparticles made by the supercritical carbon dioxide method): 27%

Compound: CCCCCCCCCCCCN1CCCCCC1=O [laurocapram, 1-Dodecyl azacycloheptan-2-one]
- local skin irritation [7]: edema and erythema have been observed

Compound: CC(C)Cn1cnc2c(N)nc3ccccc3c21 [Imiquimod]
- tolerability ([8]; despite frequent adverse effects such as vaginal discharge, vulvar pain, fever, headache, and fatigue): generally well-tolerated
- efficacy in the treatment of high-grade CIN ([8]; topically applied to the ectocervix): some efficacy

Compound: CC(=O)O[C@H]1C(=O)[C@@]2(C)[C@H]([C@H](OC(=O)c3ccccc3)[C@]3(O)C[C@H](OC(=O)[C@H](O)[C@@H](NC(=O)c4ccccc4)c4ccccc4)C(C)=C1C3(C)C)[C@]1(OC(C)=O)CO[C@@H]1C[C@@H]2O [Paclitaxel, paclitaxel]
- Paclitaxel Solubility at RT ([9]; in Benzyl Alcohol, NF): 17.02% w/w
- Paclitaxel Solubility at RT ([9]; in Diethylene Glycol Monoethyl Ether, NF (TRANSCUTOL P)): 33.10% w/w
- Paclitaxel Solubility at RT ([9]; in Diisopropyl Adipate (CERAPHYL 230)): 3.51% w/w
- Paclitaxel Solubility at RT ([9]; in Dimethyl Isosorbide): 38.22% w/w
- Paclitaxel Solubility at RT ([9]; in Hexylene Glycol): 4.07% w/w
- Paclitaxel Solubility at RT ([9]; in Isopropyl Myristate, NF): 0.048% w/w
- Paclitaxel Solubility at RT ([9]; in Medium Chain Triglycerides, NF): 0.32% w/w
- Paclitaxel Solubility at RT ([9]; in Mineral Oil, USP (heavy)): 0.3 ppm
- Paclitaxel Solubility at RT ([9]; in Polyethylene Glycol 400, NF): 22.30% w/w
- Paclitaxel Solubility at RT ([9]; in Propylene Carbonate): 4.74% w/w
- Paclitaxel Solubility at RT ([9]; in Propylene Glycol, USP): 0.88% w/w
- Paclitaxel Solubility at RT ([9]; in Super Refined Oleic Acid, NF): 0.041% w/w
- Paclitaxel Solubility at RT ([9]; in Super Refined Oleyl Alcohol, NF): 0.38% w/w
- solubility of paclitaxel in water ([9]; in water, method of Example 1): less than 0.05 ppm

Compound: Cyclomethicone
- irritation to vaginal tissues [10]: non-irritating
